# In patent publication US9701627B2, “LRRK2 GTP binding inhibitors for treatment of Parkinson's disease and neuroinflammatory disorders” (University of Maryland, Baltimore, priority 2014, dated 2017):
# What was measured:
# LRRK2 [1] = experiment: LRRK2 GTP binding assay (GTP-agarose pull-down from lysates of transfected HEK293T cells); design: species or system human; details: for effect on wild type and PD-linked mutant LRRK2 GTP-binding activity: 10 μM
# Description: LRRK2 kinase assay was adapted from previous studies using autophosphorylation of cell lysates or brain homogenates. Briefly, HEK 293T were transiently transfected with various LRRK2 variants or kinase domain fragments for 36 h, followed by […] serum starvation for 12 h, and then treated with compound 70 and 68 for 1 h. The cells were harvested using lysis buffer (Cell Signaling). Mouse brains were homogenated using RIPA buffer (Cell Signaling). The resulting cell lysates or brain homogenates were immunoprecipitated using anti-Flag antibodies. The immunoprecipitates were subjected to Western blot using anti-phosphorylation LRRK2 antibodies at S935 and S2032 residues as described previously. In some cases, immunoprecipitates were incubated with kinase reaction buffer for 90 min at 30° C. containing 50 mM MgCl2, 500 μM ATP, and 10 μCi of [γ-^32P]ATP (3,000 Ci/mmol) followed by 4-12% SDS/PAGE separation and blotted onto PVDF membranes. Quantification was performed with a phosphoimager (Bio-Rad Molecular Imager FX). GTP binding assays were performed. […] The resulting beads were washed three times with cell lysis buffer, and bound protein was eluted by adding SDS-PAGE sample buffer and heating for 10 min at 72° C. Precipitates were subjected to Western blot analysis using anti-Flag antibodies.
# GTP binding assays were performed using GTP-agarose beads (Sigma) as described previously. Lysates of HEK 293T cells expressing LRRK2 proteins were incubated with 68 or FX2149 at various concentrations for 1 h. The GTP-agarose beads were added for an additional 2 h. The samples were subjected to Western blot analysis using anti-Flag antibodies. LRRK2 kinase assays were performed using LRRK2 phosphorylation and in vitro ^32P incorporation methods as described previously.
# G2019S-LRRK2 = molecular target: T1, G2019S-LRRK2 (Homo sapiens, UniProt Q5S007, G2019S); experiment: LRRK2 phosphorylation (kinase) assay in HEK293T cells expressing G2019S-LRRK2; format: cell-based; details: 1 h
# T1 construct: expressed in transfected cells; host or cells: HEK293T
# T1 sequence (Q5S007 whole entry G2019S): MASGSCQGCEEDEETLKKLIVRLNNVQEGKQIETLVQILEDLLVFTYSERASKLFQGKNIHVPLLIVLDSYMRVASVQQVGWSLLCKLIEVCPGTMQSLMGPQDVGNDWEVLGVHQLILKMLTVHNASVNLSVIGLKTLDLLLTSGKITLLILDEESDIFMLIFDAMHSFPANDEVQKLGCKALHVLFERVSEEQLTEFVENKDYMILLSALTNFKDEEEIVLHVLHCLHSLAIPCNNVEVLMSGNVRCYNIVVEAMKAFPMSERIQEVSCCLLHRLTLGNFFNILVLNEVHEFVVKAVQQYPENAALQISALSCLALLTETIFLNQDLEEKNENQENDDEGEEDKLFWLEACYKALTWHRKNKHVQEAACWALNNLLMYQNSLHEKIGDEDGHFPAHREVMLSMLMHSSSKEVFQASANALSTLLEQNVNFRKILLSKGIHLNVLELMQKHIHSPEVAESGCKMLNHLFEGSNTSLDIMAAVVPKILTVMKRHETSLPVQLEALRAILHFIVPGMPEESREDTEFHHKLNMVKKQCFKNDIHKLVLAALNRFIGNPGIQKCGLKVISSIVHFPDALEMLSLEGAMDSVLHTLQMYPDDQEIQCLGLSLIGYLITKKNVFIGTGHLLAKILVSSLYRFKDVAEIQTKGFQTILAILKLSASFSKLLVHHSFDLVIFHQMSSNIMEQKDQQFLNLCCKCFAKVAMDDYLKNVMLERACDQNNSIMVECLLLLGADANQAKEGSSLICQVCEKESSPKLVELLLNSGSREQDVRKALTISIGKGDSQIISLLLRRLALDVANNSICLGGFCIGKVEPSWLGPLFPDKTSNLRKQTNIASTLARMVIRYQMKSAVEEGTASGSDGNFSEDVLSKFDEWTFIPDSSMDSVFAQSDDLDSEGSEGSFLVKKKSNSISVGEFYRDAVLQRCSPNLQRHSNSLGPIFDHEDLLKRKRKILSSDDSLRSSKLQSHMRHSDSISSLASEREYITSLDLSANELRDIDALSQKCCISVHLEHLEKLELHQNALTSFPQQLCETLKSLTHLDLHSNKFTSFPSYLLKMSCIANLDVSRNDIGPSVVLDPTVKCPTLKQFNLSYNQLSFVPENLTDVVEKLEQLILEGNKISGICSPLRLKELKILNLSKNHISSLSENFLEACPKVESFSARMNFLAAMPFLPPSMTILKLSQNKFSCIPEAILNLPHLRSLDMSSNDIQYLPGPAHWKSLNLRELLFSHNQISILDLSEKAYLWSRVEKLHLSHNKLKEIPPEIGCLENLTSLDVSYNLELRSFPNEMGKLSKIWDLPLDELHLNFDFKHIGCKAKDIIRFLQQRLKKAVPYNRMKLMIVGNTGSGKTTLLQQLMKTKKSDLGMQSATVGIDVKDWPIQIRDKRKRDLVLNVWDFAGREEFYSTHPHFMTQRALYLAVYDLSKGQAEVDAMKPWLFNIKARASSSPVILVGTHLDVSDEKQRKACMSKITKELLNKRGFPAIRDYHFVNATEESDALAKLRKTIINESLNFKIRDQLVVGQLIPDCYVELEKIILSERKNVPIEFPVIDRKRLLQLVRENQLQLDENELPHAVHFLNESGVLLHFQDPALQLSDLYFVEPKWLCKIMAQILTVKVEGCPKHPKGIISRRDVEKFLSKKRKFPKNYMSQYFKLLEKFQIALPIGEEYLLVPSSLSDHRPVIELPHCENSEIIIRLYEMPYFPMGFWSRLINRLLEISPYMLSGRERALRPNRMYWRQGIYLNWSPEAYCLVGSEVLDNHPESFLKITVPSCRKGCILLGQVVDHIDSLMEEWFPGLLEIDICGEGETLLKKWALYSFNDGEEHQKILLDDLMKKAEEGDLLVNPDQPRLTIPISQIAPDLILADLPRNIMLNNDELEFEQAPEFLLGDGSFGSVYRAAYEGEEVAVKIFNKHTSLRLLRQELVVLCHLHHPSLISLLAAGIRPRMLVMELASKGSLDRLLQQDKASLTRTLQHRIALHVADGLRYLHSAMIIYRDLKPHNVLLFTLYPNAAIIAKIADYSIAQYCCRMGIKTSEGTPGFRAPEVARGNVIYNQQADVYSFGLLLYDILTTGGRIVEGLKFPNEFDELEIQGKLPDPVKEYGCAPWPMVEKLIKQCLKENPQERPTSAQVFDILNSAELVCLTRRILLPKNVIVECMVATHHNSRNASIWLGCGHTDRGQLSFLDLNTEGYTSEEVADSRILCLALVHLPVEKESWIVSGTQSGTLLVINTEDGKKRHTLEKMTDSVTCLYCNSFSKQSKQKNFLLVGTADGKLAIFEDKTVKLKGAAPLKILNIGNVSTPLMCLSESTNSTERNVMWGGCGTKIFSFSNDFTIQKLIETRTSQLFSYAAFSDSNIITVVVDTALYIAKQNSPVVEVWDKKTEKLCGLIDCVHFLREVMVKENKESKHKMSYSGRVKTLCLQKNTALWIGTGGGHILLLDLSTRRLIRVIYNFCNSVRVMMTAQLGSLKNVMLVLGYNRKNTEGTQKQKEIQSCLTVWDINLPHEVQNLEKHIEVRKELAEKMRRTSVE
# Description: LRRK2 kinase assay was adapted from previous studies using autophosphorylation of cell lysates or brain homogenates. Briefly, HEK 293T were transiently transfected with various LRRK2 variants or kinase domain fragments for 36 h, followed by no serum starvation for 12 h, and then treated with compound 70 and 68 for 1 h. The cells were harvested using lysis buffer (Cell Signaling). Mouse brains were homogenated using RIPA buffer (Cell Signaling). The resulting cell lysates or brain homogenates were immunoprecipitated using anti-Flag antibodies. The immunoprecipitates were subjected to Western blot using anti-phosphorylation LRRK2 antibodies at S935 and S2032 residues as described previously. In some cases, immunoprecipitates were incubated with kinase reaction buffer for 90 min at 30° C. containing 50 mM MgCl2, 500 μM ATP, and 10 μCi of [γ-^32P]ATP (3,000 Ci/mmol) followed by 4-12% SDS/PAGE separation and blotted onto PVDF membranes. Quantification was performed with a phosphoimager (Bio-Rad Molecular Imager FX). GTP binding assays were performed. […]
# For LRRK2 phosphorylation assays, HEK293T cells were transfected with various LRRK2 variants for 36 h, then were incubated in media without serum for 12 hours. […] The LRRK2 autophosphorylation with ^32P incorporation was separated by SDS/PAGE gel and quantified with a phosphoimager (Bio-Rad Molecular Imager).
# [2] = test system: SH-SY5Y cells expressing G2019S-LRRK2; experiment: SH-SY5Y cell viability assay (G2019S-LRRK2-induced neuronal degeneration); format: cell-based, human
# Description: Mouse primary cortical neurons were derived from CD-1 outbred mice (The Jackson Laboratory) at embryonic day 16 and cultured on 24 well plates coated with laminin- and poly-D-lysine-coated plates (BD Biosource, San Diego). Neurons were grown in neurobasal medium containing B-27 supplement, Glutamax, and penicillin/streptomycin. LRRK2 constructs were transfected into mouse primary cortical neurons using Lipofectamine 2000 (Invitrogen) according to the manufacturer's protocol. Cell viability assays were conducted. pcDNA3.1-GFP and FLAG-LRRK2 constructs at 1:15 ratio were cotransfected into SH-SY5Y cells (neurons) in 10% FBS OPTI-I media for 24 h. The media were changed to DMEM containing N2 supplement for 24 h. Cell viability was measured by counting GFP-positive viable cells (neurons) from 20 randomly selected fields using fluorescence microscopy. Viable cells (neurons) with one smooth extension (neurite) twice the length of the cell body were counted.
# SH-SY5Y cell viability assays were conducted as described. […] Cell viability was measured by counting the healthy viable cells that contained at least one smooth extension (neurite) that was twice the length of the cell body from 20 randomly selected fields using fluorescence microscopy. […] The quantification for LRRK2 toxicity was performed by an investigator who was blind to transfection groups.
# [3] = test system: SH-SY5Y cells expressing mutant G2019S-LRRK2; experiment: TUNEL assay in SH-SY5Y cells expressing mutant LRRK2; format: cell-based, human; details: 100 nM
# Description: Expression of mutant G2019S-LRRK2 led to neuronal degeneration in both SH-SY5Y and mouse primary cortical neurons as assessed by cell viability and DNA fragmentation (TUNEL) assays as previously described. […] To further confirm these findings, mouse primary cortical neurons were used to assess the effects of 70 and 68. Treatment of 70 (2 and 5 nM) and 68 (5 and 10 nM) protected against mutant LRRK2-induced neuronal degeneration (FIG. 15, panels (a) and (c)). Moreover, 70 and 68 both decreased the TUNEL-positive SH-SY5Y cells expressing mutant LRRK2 (FIG. 15, panel (d)).
# SH-SY5Y cell viability assays were conducted as described. Cells were co-transfected with GFP and various pcDNA3.1-LRRK2 plasmids at a 1:15 ratio for 24 h in 10% FBS OPTI-I media and then changed to DMEM with N2 supplement for 24 h. Compounds were added after 4-h transfection. Cell viability was measured by counting the healthy viable cells that contained at least one smooth extension (neurite) that was twice the length of the cell body from 20 randomly selected fields using fluorescence microscopy. TUNEL assays were performed according to the manufacturer's instructions as described previously. The experiments were repeated three times in duplicate. The quantification for LRRK2 toxicity was performed by an investigator who was blind to transfection groups.
# LRRK2 [4] = molecular target: T2, LRRK2 (Mus musculus, UniProt Q5S006, G2019S); experiment: brain LRRK2 GTP binding in G2019S-LRRK2-BAC transgenic mice; format: in vivo; details: for effect on brain LRRK2 GTP binding activity: 1 h after injection
# T2 construct: tissue Jackson Laboratory 012467; host or cells: brain homogenate of G2019S-LRRK2-BAC transgenic mice
# T2 sequence (Q5S006 whole entry G2019S): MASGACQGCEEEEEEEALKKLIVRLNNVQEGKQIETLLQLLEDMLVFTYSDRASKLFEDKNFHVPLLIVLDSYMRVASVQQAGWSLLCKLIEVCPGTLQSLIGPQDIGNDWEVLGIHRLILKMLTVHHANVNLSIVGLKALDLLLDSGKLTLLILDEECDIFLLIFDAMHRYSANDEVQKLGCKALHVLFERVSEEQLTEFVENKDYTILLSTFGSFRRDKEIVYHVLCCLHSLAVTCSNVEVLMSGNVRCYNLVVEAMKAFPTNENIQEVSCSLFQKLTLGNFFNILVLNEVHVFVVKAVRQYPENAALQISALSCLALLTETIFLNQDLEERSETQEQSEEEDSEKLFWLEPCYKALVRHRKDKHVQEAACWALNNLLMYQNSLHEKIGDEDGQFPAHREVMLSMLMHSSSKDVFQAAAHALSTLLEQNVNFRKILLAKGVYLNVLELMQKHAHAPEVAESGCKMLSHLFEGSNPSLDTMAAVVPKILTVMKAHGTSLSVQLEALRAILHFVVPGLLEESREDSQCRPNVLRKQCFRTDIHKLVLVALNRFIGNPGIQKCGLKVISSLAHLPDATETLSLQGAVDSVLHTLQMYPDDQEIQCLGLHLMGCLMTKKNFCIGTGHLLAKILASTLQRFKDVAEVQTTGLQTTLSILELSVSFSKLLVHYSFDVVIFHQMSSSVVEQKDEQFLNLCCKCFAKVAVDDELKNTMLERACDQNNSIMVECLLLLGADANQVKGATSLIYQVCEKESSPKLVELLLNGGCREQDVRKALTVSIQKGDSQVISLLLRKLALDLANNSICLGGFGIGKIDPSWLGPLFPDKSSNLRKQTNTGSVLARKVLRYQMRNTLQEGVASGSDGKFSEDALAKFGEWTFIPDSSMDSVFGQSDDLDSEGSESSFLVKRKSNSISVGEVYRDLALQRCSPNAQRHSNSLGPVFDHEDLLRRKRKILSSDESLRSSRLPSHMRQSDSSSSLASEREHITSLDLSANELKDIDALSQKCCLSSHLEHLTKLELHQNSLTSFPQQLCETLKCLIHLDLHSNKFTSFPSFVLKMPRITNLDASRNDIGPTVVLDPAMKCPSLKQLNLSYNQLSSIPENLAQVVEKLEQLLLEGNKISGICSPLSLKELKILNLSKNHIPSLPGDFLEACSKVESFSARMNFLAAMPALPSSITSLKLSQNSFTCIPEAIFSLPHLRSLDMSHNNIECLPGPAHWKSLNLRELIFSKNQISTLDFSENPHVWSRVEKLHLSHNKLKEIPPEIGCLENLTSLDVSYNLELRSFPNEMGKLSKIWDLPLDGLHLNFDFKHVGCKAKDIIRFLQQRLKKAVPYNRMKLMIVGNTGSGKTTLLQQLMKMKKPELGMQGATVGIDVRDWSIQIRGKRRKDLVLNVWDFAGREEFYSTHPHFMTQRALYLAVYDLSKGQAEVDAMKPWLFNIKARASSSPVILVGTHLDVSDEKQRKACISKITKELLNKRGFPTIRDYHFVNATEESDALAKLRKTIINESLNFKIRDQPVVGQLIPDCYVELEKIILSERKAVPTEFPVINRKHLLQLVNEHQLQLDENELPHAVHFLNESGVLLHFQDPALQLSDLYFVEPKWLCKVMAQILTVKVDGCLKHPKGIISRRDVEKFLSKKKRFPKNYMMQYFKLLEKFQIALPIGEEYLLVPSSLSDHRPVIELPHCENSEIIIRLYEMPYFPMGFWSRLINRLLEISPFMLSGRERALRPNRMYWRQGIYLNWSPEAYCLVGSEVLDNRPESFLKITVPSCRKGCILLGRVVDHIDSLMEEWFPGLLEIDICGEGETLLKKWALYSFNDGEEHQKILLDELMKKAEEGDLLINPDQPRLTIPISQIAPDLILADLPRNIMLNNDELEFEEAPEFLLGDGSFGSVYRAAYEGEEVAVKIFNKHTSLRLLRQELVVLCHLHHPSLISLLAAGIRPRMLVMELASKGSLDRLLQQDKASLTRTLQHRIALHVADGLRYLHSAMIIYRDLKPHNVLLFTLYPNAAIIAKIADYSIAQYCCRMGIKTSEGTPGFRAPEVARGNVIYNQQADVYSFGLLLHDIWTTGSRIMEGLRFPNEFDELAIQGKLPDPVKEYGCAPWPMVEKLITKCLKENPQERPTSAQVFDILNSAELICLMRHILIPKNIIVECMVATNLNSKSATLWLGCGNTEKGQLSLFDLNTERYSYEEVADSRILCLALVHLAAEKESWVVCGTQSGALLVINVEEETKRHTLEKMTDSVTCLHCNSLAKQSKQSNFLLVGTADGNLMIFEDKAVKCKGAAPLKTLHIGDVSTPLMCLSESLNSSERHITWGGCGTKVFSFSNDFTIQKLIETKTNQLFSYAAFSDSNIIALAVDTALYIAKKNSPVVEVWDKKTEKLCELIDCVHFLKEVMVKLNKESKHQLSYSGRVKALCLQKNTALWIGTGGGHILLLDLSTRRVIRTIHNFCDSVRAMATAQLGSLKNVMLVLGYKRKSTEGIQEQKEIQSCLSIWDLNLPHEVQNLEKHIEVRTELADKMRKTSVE
# Description: (§1) To assess whether 70 and 68 alter LRRK2 activities in vivo, G2019S-LRRK2-BAC transgenic mice were used. […] Only the effects of 68 on LRRK2 functions were tested in vivo using G2019S-LRRK2-BAC transgenic mice. Vehicle or 68 at 10 and 20 mg/kg was injected intraperitoneally for one hour. Mouse brain homogenates were subjected to LRRK2 autophosphorylation and GTP binding assays.
# LRRK2 kinase assay was adapted from previous studies using autophosphorylation of cell lysates or brain homogenates. Briefly, HEK 293T were transiently transfected with various LRRK2 variants or kinase domain fragments for 36 h, followed by […] serum starvation for 12 h, and then treated with compound 70 and 68 for 1 h. The cells were harvested using lysis buffer (Cell Signaling). Mouse brains were homogenated using RIPA buffer (Cell Signaling). The resulting cell lysates or brain homogenates were immunoprecipitated using anti-Flag antibodies. The immunoprecipitates were subjected to Western blot using anti-phosphorylation LRRK2 antibodies at S935 and S2032 residues as described previously. In some cases, immunoprecipitates were incubated with kinase reaction buffer for 90 min at 30° C. containing 50 mM MgCl2, 500 μM ATP, and 10 μCi of [γ-^32P]ATP (3,000 Ci/mmol) followed by 4-12% SDS/PAGE separation and blotted onto PVDF membranes. Quantification was performed with a phosphoimager (Bio-Rad Molecular Imager FX). GTP binding assays were performed. Cell lysates or brain homogenates (100 μg protein/per reaction) were incubated with vehicle or compounds at 1-50 μM concentration for 1 h followed by addition of GTP-agarose beads (Sigma) for an additional 2 h at 4° C. The resulting beads were washed three times with cell lysis buffer, and bound protein was eluted by adding SDS-PAGE sample buffer and heating for 10 min at 72° C. Precipitates were subjected to Western blot analysis using anti-Flag antibodies.
# To assess the effects of FX2149 on LRRK2 in brains compared with 68, both 68 and FX2149 were injected intraperitoneally into G2019S-BAC-LRRK2 transgenic mice at 10 and 20 mg/kg doses. One hour after the injection, the mouse brain homogenates were subjected to LRRK2 GTP binding and kinase assays. Both 68 (20 mg/kg) and FX2149 (10 mg/kg) reduced LRRK2 GTP binding activity in mouse brains (FIGS. 32 and 33). […] To further confirm the effect of FX2149, we also assessed a LRRK2 downstream effector, 4E-BP phosphorylation. 4E-BP is a […] that can be phosphorylated by LRRK2. […] FX2149 at a 10 mg/kg dose reduced 4E-BP up to 15% of the untreated control group, while 68 at a 20 mg/kg dose reduced 4E-BP up to 15% of the untreated control group.
# LRRK2 [5] = molecular target: T2, LRRK2; experiment: brain LRRK2 phosphorylation (kinase activity) in G2019S-LRRK2-BAC transgenic mice; format: in vivo; details: 1 h after injection
# Description: as §1
# LRRK2 kinase assay was adapted from previous studies using autophosphorylation of cell lysates or brain homogenates. Briefly, HEK 293T were transiently transfected with various LRRK2 variants or kinase domain fragments for 36 h, followed by no serum starvation for 12 h, and then treated with compound 70 and 68 for 1 h. The cells were harvested using lysis buffer (Cell Signaling). Mouse brains were homogenated using RIPA buffer (Cell Signaling). The resulting cell lysates or brain homogenates were immunoprecipitated using anti-Flag antibodies. […] Quantification was performed with a phosphoimager (Bio-Rad Molecular Imager FX). […]
# To assess the effects of FX2149 on LRRK2 in brains compared with 68, both 68 and FX2149 were injected intraperitoneally into G2019S-BAC-LRRK2 transgenic mice at 10 and 20 mg/kg doses. […] To further confirm the effect of FX2149, we also assessed a LRRK2 downstream effector, 4E-BP phosphorylation. […]
# [6] = test system: LPS-induced microglia activation and LRRK2 upregulation; experiment: LPS-based mouse neuroinflammation model, immunohistochemistry of substantia nigra; format: in vivo
# Description: G2019S-LRRK2-BAC (Jackson, Lab. Cat: 012467) transgenic mice were food deprived for 4 h before surgery. There were 4 to 6 mice in each experimental group. Mice were anesthetized with isoflurane. LPS ([…] containing 15,000 endotoxin units, Sigma) was injected into the substantia nigra pars compacta unilaterally with a 1 μl volume at 0.2 μl/min flow rate as described previously. The stereotaxic coordinates were −3.4 anteroposterior (AP), −1.1 ML, and −3.9 DV with respect to bregma. After injection, the needle was kept in place for 5 min before withdrawal to avoid LPS leakage up the cannula track. […] Then 68 was injected twice daily for three days. The mice were perfused with 4% paraformaldehyde (PFA) in PBS and the brains were dissected and frozen in isopentane and stored in a −80° C. freezer for immunostaining Animal usage was approved by the University of Maryland School of Pharmacy.
# Mice were perfused with saline and 4% paraformaldehyde. Frozen mouse brains were sectioned through the substantia nigra at 30 μm and the sections were subjected to immunohistochemical analysis as described previously. Briefly, frozen sections were placed in 0.6% H2O2 in methanol for 10 min followed by 5% normal goat serum (Sigma) to block non-specific reactions. Sections were then sequentially incubated with primary antibodies and biotinylated anti-rabbit secondary antibodies (Vector Laboratories) and avidin-biotin-peroxidase complex (ABC Elite kit, Vector Laboratories). Anti-LRRK2 (MJFF), anti-phosphorylated LRRK2 S935 (MJFF), and anti-isolectin antibodies were used as primary antibodies. Isolectin-B4:FITC or Isolectin-B4:Biotin were from Sigma. Some tissue sections were visualized by peroxidase reaction using diaminobenzidine (DAB, Sigma). Some tissue sections were probed with Alexa Fluor 488 goat anti-mouse (rabbit) IgG and Alexa Fluor 568 goat anti-mouse (rabbit) IgG (Invitrogen) as secondary antibodies. The specificity of the immunostaining was checked by incubating adjacent sections with each preabsorbed primary antibody. […] The density of red and green fluorescence in the 6 consecutive sections crossing the LPS injection site of each mouse was quantified using NIH image-J software. Six microscope field images (20×) from one brain section were subjected to fluorescence density quantification. […]
# G2019S-LRRK2-BAC transgenic mice were anesthetized with isoflurane and injected with LPS (15,000 endotoxin units, 5 μg, Sigma) for each mouse in the substantia nigra pars compacta (SN) unilaterally as described previously. […] Some sections were added with anti-rabbit (mouse) biotinylated secondary antibody and avidin-biotin-peroxidase complex (Vector Laboratories), and detected by diaminobenzidine (DAB, Sigma). […]
SMILES,effect on wild type and PD-linked mutant LRRK2 GTP-binding activity (LRRK2 [1]),reduction of LRRK2 GTP binding activity (LRRK2 [1]; 10 nM) [%],effect on LRRK2 binding with GTP (LRRK2 [1]; 1 and 10 nM),effect on mutant LRRK2 variants (G2019S and R1441C) bound with GTP (LRRK2 [1]; 1 and 10 nM),reduction of G2019S-LRRK2 kinase activity (phosphorylation at S935 and S2032) (G2019S-LRRK2; 100 nM) [%],protection against mutant LRRK2-induced neurodegeneration ([2]; 50-200 nM),viability of cells expressing G2019S-LRRK2 compared with vehicle treated cells ([2]; treated for 48 hours),TUNEL-positive cells expressing mutant G2019S-LRRK2 [3],effect on brain LRRK2 GTP binding activity (LRRK2 [4]; 10 mg/kg i.p.),brain (BBB) penetration inferred from brain LRRK2 GTP binding and kinase inhibition (LRRK2 [4]; after i.p. injection),"improvement of in vivo efficacy over 68 (LRRK2 [4]; mouse, in vivo)",effect on brain LRRK2 kinase activity (LRRK2 [5]; 10 mg/kg i.p.),reduction of LPS-induced microglia activation compared with vehicle treated LPS mice ([6]; 10 mg/kg) [%],LPS-induced LRRK2-positive immunostaining compared with vehicle controls ([6]; 10 mg/kg i.p.),anti-phosphorylated-LRRK2 immunoactivity ([6]; 10 mg/kg i.p.),"isolectin B4 immunoactivity compared with the LPS alone treated group ([6]; 10 mg/kg i.p., twice daily for three days) [%]",effect on LRRK2 phosphorylation (G2019S-LRRK2; 10 μM),effect on brain LRRK2 GTP binding activity (LRRK2 [4]; 20 mg/kg i.p.),effect on brain LRRK2 phosphorylation (kinase activity) (LRRK2 [5]; 20 mg/kg i.p.)
"O=C1Nc2ccc(I)cc2/C1=C/c1cc(Br)c(O)c(Br)c1 [GW5074, reference compound]",did not alter,,,,,,,,,,,,,,,,,,
"CCCNC(=O)c1cccc(NS(=O)(=O)c2cccnc2)c1 [FX2149, N-propyl-3-(pyridine-3-sulfonamido)benzamide]",,~90,significantly reduced,reduced,~90,protected,significantly increased,significantly reduced,reduced,taken up into brains at a greater extent,more than 2 fold,significantly reduced,57,significantly reduced,significantly reduced,~43,,,
"CC(C)NC(=O)c1cccc(NS(=O)(=O)c2cccnc2)c1 [FX2151, N-isopropyl-3-(pyridine-3-sulfonamido)benzamide]",did not alter,,,,,,,,,,,,,,,,did not alter,did not alter,did not alter
